Reference: ChEMBL document CHEMBL1255486, “Effect of vicriviroc on the QT/corrected QT interval and central nervous system in healthy subjects” (Antimicrob Agents Chemother, 2010)

Experiments:
Parameters in all cases: dose 400 mg/kg, route oral
Conditions in all cases: in vivo
Homo sapiens [1] = test: Toxicity in healthy human assessed as abdominal pain at 400 mg/kg, po administered as single dose; format: organism-based, Abdomen
Homo sapiens [2] = test: Cardiotoxicity in healthy human assessed as change in corrected QT interval at 400 mg/kg, po within 12 hrs by ECG; format: toxicity, organism-based
Homo sapiens [3] = test: Toxicity in healthy human assessed as dizziness at 400 mg/kg, po administered as single dose; format: organism-based
Homo sapiens [4] = test: Toxicity in healthy human assessed as diarrhea at 400 mg/kg, po administered as single dose; format: organism-based
Homo sapiens [5] = test: Toxicity in healthy human assessed as nausea at 400 […], po administered as single dose; format: organism-based
Homo sapiens [6] = test: Toxicity in healthy human assessed as headache at 400 […], po administered as single dose; format: organism-based
Homo sapiens [7] = test: Cardiotoxicity in healthy human assessed as change in corrected QT interval at 400 mg/kg, po within 3 hrs by ECG; format: toxicity, organism-based

SMILES: COc1c(N2C[C@@H]3CCCN[C@@H]3C2)c(F)cc2c(=O)c(C(=O)O)cn(C3CC3)c12 [MOXIFLOXACIN]
- Activity (Homo sapiens [1]): 5%
- QTc change (Homo sapiens [2]): 10 ms
- Activity (Homo sapiens [3]): 0%
- Activity (Homo sapiens [4]): 3%
- Activity (Homo sapiens [5]): 3%
- Activity (Homo sapiens [6]): 5%
- Activity (Homo sapiens [7]): Non-toxic
